The values that follow come from the supplement of paper PMC10307832.

What all share (assay): relative viability (nuclei count vs DMSO), 5 days (fraction); higher = more cells survive
Compound in the assay “BMX-IN-1 + AZD7762”: C=CC(=O)Nc1cc(-n2c(=O)ccc3cnc4ccc(-c5ccc(NS(C)(=O)=O)cc5)cc4c32)ccc1C [BMX-IN-1] + NC(=O)Nc1cc(-c2cccc(F)c2)sc1C(=O)N[C@H]1CCCNC1 [AZD7762] (partner 0.2 µM)
In short, it runs like this:
(§1)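 Relative viability is defined as nuclei in treated wells over nuclei in vehicle wells. Duplicate plates were run and medians reported. Lung cancer cell lines in 1536-well plates were dosed by pin tool one day after seeding, with one drug or with a fixed anchor-drug dose plus five library-drug doses (not always all listed) in √10 steps, and nuclei were counted after 5 days.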

Compound in the assay “BMX-IN-1 + Tozasertib”: C=CC(=O)Nc1cc(-n2c(=O)ccc3cnc4ccc(-c5ccc(NS(C)(=O)=O)cc5)cc4c32)ccc1C [BMX-IN-1] + Cc1cc(Nc2cc(N3CCN(C)CC3)nc(Sc3ccc(NC(=O)C4CC4)cc3)n2)n[nH]1 [Tozasertib] (partner 0.1 µM)
The method, boiled down: as §1

Compound in the assay “Ibrutinib + Luminespib”: C=CC(=O)N1CCC[C@@H](n2nc(-c3ccc(Oc4ccccc4)cc3)c3c(N)ncnc32)C1 [Ibrutinib] + CCNC(=O)c1noc(-c2cc(C(C)C)c(O)cc2O)c1-c1ccc(CN2CCOCC2)cc1 [Luminespib] (partner 0.01 µM)
In short, it runs like this: as §1

Compound in the assay “BMX-IN-1 + Phenformin”: C=CC(=O)Nc1cc(-n2c(=O)ccc3cnc4ccc(-c5ccc(NS(C)(=O)=O)cc5)cc4c32)ccc1C [BMX-IN-1] + N=C(N)NC(=N)NCCc1ccccc1 [Phenformin] (partner 250 µM)
In short, it runs like this:
as §1

Turning to NCI-H1703, the relative viability with BMX-IN-1 + AZD7762 (first compound 0.02 µM) turned out to be 0.132; with BMX-IN-1 + AZD7762 (first compound 2 µM) it was 0.143.

Consider NCI-H1623, for which the relative viability is 0.494 in the assay with BMX-IN-1 + Tozasertib (first compound 0.02 µM); 0.465 with BMX-IN-1 + Tozasertib (first compound 0.2 µM); 0.447 in the assay with BMX-IN-1 + Tozasertib (first compound 0.6325 µM); 0.394 in the assay with BMX-IN-1 + Tozasertib (first compound 2 µM); 0.382 with Ibrutinib + Luminespib (first compound 0.005 µM); 0.505 with Ibrutinib + Luminespib (first compound 0.01581 µM). Further, the relative viability in the assay with Ibrutinib + Luminespib (first compound 0.05 µM) stood at 0.486; with Ibrutinib + Luminespib (first compound 0.1581 µM), 0.414; in the assay with Ibrutinib + Luminespib (first compound 0.5 µM), 0.304; with BMX-IN-1 + Phenformin (first compound 0.02 µM) it was 0.527; with BMX-IN-1 + Phenformin (first compound 0.2 µM) it was 0.676; with BMX-IN-1 + Phenformin (first compound 0.6325 µM), 0.585. Moreover, the relative viability with BMX-IN-1 + Phenformin (first compound 2 µM) stood at 0.601.

Take UMC-11: the relative viability is 0.194 in the assay with BMX-IN-1 + Tozasertib (first compound 0.02 µM); 0.197 in the assay with BMX-IN-1 + Tozasertib (first compound 0.2 µM); 0.244 in the assay with BMX-IN-1 + Tozasertib (first compound 0.6325 µM); 0.196 with BMX-IN-1 + Tozasertib (first compound 2 µM); 0.873 with Ibrutinib + Luminespib (first compound 0.005 µM); 0.999 with Ibrutinib + Luminespib (first compound 0.01581 µM). For the same cell line, the relative viability with Ibrutinib + Luminespib (first compound 0.05 µM) stood at 1.07; in the assay with Ibrutinib + Luminespib (first compound 0.1581 µM) it was 1.05; with Ibrutinib + Luminespib (first compound 0.5 µM), 0.98; with BMX-IN-1 + Phenformin (first compound 0.02 µM), 0.294; with BMX-IN-1 + Phenformin (first compound 0.2 µM) it was 0.316; with BMX-IN-1 + Phenformin (first compound 0.6325 µM), 0.356. For the same cell line, the relative viability in the assay with BMX-IN-1 + Phenformin (first compound 2 µM) turned out to be 0.367.

On to NCI-H520, for which the relative viability with BMX-IN-1 + Tozasertib (first compound 0.02 µM) worked out at 0.494; with BMX-IN-1 + Tozasertib (first compound 0.2 µM) it was 0.451; in the assay with BMX-IN-1 + Tozasertib (first compound 0.6325 µM) it was 0.43; with BMX-IN-1 + Tozasertib (first compound 2 µM), 0.429; with Ibrutinib + Luminespib (first compound 0.005 µM), 0.252; with Ibrutinib + Luminespib (first compound 0.01581 µM), 0.237. Also, the relative viability in the assay with Ibrutinib + Luminespib (first compound 0.05 µM) is 0.247; in the assay with Ibrutinib + Luminespib (first compound 0.1581 µM), 0.232; with Ibrutinib + Luminespib (first compound 0.5 µM), 0.269; with BMX-IN-1 + Phenformin (first compound 0.02 µM) it was 0.711; with BMX-IN-1 + Phenformin (first compound 0.2 µM), 0.81; in the assay with BMX-IN-1 + Phenformin (first compound 0.6325 µM), 0.709. The relative viability in the assay with BMX-IN-1 + Phenformin (first compound 2 µM) came to 0.693.

Take SK-LU-1: the relative viability with BMX-IN-1 + Tozasertib (first compound 0.02 µM) was 0.321; with BMX-IN-1 + Tozasertib (first compound 0.2 µM), 0.344; in the assay with BMX-IN-1 + Tozasertib (first compound 0.6325 µM) it was 0.281; with BMX-IN-1 + Tozasertib (first compound 2 µM), 0.254; in the assay with Ibrutinib + Luminespib (first compound 0.005 µM), 0.205; with Ibrutinib + Luminespib (first compound 0.01581 µM), 0.184. Moreover, the relative viability amounted to 0.24 with Ibrutinib + Luminespib (first compound 0.05 µM); 0.199 in the assay with Ibrutinib + Luminespib (first compound 0.1581 µM); 0.194 with Ibrutinib + Luminespib (first compound 0.5 µM); 0.513 with BMX-IN-1 + Phenformin (first compound 0.02 µM); 0.636 with BMX-IN-1 + Phenformin (first compound 0.2 µM); 0.626 with BMX-IN-1 + Phenformin (first compound 0.6325 µM). Further, the relative viability with BMX-IN-1 + Phenformin (first compound 2 µM) came to 0.524.

Consider COR-L 105, for which the relative viability worked out at 0.388 with BMX-IN-1 + Tozasertib (first compound 0.02 µM); 0.318 with BMX-IN-1 + Tozasertib (first compound 0.2 µM); 0.76 in the assay with BMX-IN-1 + Tozasertib (first compound 0.6325 µM); 0.358 with BMX-IN-1 + Tozasertib (first compound 2 µM); 0.765 with Ibrutinib + Luminespib (first compound 0.005 µM); 0.802 with Ibrutinib + Luminespib (first compound 0.01581 µM). Further, the relative viability is 0.744 in the assay with Ibrutinib + Luminespib (first compound 0.05 µM); 0.883 with Ibrutinib + Luminespib (first compound 0.1581 µM); 0.599 with Ibrutinib + Luminespib (first compound 0.5 µM); 0.486 with BMX-IN-1 + Phenformin (first compound 0.02 µM); 0.458 with BMX-IN-1 + Phenformin (first compound 0.2 µM); 0.49 in the assay with BMX-IN-1 + Phenformin (first compound 0.6325 µM). The relative viability in the assay with BMX-IN-1 + Phenformin (first compound 2 µM) amounted to 0.574.

In the case of NCI-H1792, the relative viability is 0.486 with Ibrutinib + Luminespib (first compound 0.01581 µM); 0.485 with Ibrutinib + Luminespib (first compound 0.05 µM); 0.364 with Ibrutinib + Luminespib (first compound 0.1581 µM); 0.367 with Ibrutinib + Luminespib (first compound 0.5 µM); 0.896 with BMX-IN-1 + AZD7762 (first compound 0.02 µM); 0.79 with BMX-IN-1 + AZD7762 (first compound 0.2 µM). Besides, the relative viability with BMX-IN-1 + AZD7762 (first compound 0.6325 µM) came out at 0.866; with BMX-IN-1 + AZD7762 (first compound 2 µM), 0.885; with BMX-IN-1 + Phenformin (first compound 0.02 µM), 0.235; in the assay with BMX-IN-1 + Phenformin (first compound 0.2 µM), 0.354; in the assay with BMX-IN-1 + Phenformin (first compound 0.6325 µM) it was 0.292; with BMX-IN-1 + Phenformin (first compound 2 µM) it was 0.312.
